Where “and” joins values, the source holds several entries; their conditions need not be identical. Equal entries are not always repeated.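 A five-concentration, 48-hour dose response in 96-well plates underlies each endpoint, interpolated linearly between surrounding concentrations. The concentration for 50% growth inhibition is given as GI50. TGI: concentration producing complete growth inhibition.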
Assays:
Assay in all cases: inhibition of tumour cell growth, NCI panel, 48 h
A498 renal = system: A498 renal
KM12 colon = system: KM12 colon
MDA-MB-435 = system: MDA-MB-435
NCI/ADR-RES ovarian = system: NCI/ADR-RES ovarian
OVCAR-3 ovarian = system: OVCAR-3 ovarian
PC-3 prostate = system: PC-3 prostate
SR leukemia = system: SR leukemia
SW-620 colon = system: SW-620 colon
U251 CNS = system: U251 CNS
UACC-62 melanoma = system: UACC-62 melanoma

Compound | GI50 (A498 renal) [µM] | TGI (A498 renal) [µM] | GI50 (KM12 colon) [µM] | TGI (KM12 colon) [µM] | GI50 (MDA-MB-435) [µM] | TGI (MDA-MB-435) [µM] | GI50 (NCI/ADR-RES ovarian) [µM] | TGI (NCI/ADR-RES ovarian) [µM] | TGI (OVCAR-3 ovarian) [µM] | GI50 (PC-3 prostate) [µM] | TGI (PC-3 prostate) [µM] | GI50 (SR leukemia) [µM] | TGI (SR leukemia) [µM] | GI50 (SW-620 colon) [µM] | TGI (SW-620 colon) [µM] | GI50 (U251 CNS) [µM] | TGI (U251 CNS) | GI50 (UACC-62 melanoma) [µM] | TGI (UACC-62 melanoma) | GI50 (OVCAR-3 ovarian) [µM]
CC(C)(C)OC(=O)NCCCCCCCCn1c2c(c3ccccc3c1=O)C(=O)c1ccccc1-2 | 15.5 | > 47.7 | > 40.4 | > 50 | > 50 | > 50 | > 42.1 | > 50 | > 39.4 | > 50 | > 50 | > 34.8 | > 50 | > 50 | > 50 | 16.7 | > 50 µM | 20.3 | > 50 µM | –
Nc1ccc(C#Cc2cncnc2Nc2ccc(OCc3cccc(F)c3)c(Cl)c2)cc1 | 1.7 | > 15.4 | 10.2 | > 25 | > 17.6 | > 25 | 12.7 | > 25 | > 25 | 8.91 | > 25 | > 18 | > 25 | > 25 | > 25 | > 14 | > 25 µM | 19.4 | > 25 µM | 8.87
CCc1cccc(CC)c1NC(=S)NC(=O)c1ccc(Br)cc1 | – | > 100 | – | > 100 | – | 83.5 | – | > 100 | > 100 | – | > 100 | – | 66.3 | – | > 100 | – | > 100 µM | – | > 100 µM | –
COC(=O)c1c2c(c(C)[n+]([O-])c1C)C(=O)C=C(NCc1cccc(OC)c1)C2=O | 1.31 | 2.59 | – | – | 0.178 | 0.33 | 0.441 | 3.15 | 0.743 | 0.333 | 2.73 | 0.561 | 8.11 | 0.318 | 1.26 | 0.646 | 2.08 µM | 0.25 | 1.07 µM | 0.257
C=C(CN1CCN(c2cccc(C(F)(F)F)c2)CC1)c1ccc(C(=O)Nc2ccccc2N)cc1 | 0.005 | 5.18 | 0.486 | 5.15 | 0.156 | 0.554 | 2.34 | > 50 | 6.2 | 0.615 | > 50 | 0.0568 | > 50 | 1.28 | 15.9 | 1.18 | 5.84 µM | 0.409 | 4.89 µM | 0.545
Cc1cc(O)c2c(c1)C(=O)c1cc(O)cc(O)c1C2=O | – | 56.5 | – | > 57.5 | 18.1 | 62.5 | 36.8 | > 100 | 42.2 | 25 | > 100 | – | 68 | – | > 100 | – | > 96.3 µM | 11.2 | 38.1 µM | 14.7
Nc1nc2c(c3ncccc13)C(c1cccc(Cl)c1)Cc1ncccc1-2 (centres undefined) | 1.35 | 6.24 | 0.646 | 15.5 | 0.29 | 1.17 | 0.959 | 7.5 | 4.88 | 2.6 | 17.6 | 0.469 | 14.3 | 0.88 | 30.8 | 2.17 | 15.4 µM | 0.628 | 16.6 µM | 1.11
C/C=C(\C)C(=O)O[C@@H]1C(O)[C@H]2OC(COC(=O)CCC(=O)CCCCCC[C@H](CCCCC)O[C@@H]3OC(C)[C@H](OC(C)=O)C(O)[C@H]3O2)[C@H]1OC(=O)/C=C/c1ccccc1 (some centres undefined) | 0.12 | 5.59 | < 0.0138 | > 100 | < 0.01 | 4.68 | 0.336 | > 100 | 13.7 | < 0.0132 | 16.7 | < 0.012 | 3.18 | < 0.0114 | > 60 | < 0.01 | 6.39 µM | 0.0176 | 1.01 µM | 0.0284
O=C(Nc1cnn2ccc(N3CCC[C@@H]3c3cc(F)ccc3F)nc12)N1CC[C@H](O)C1 | > 100 | > 100 | 0.0122 | > 100 | > 100 | > 100 | > 100 | > 100 | > 100 | > 100 | > 100 | > 100 | > 100 | > 100 | > 100 | > 100 | > 100 µM | > 100 | > 100 µM | > 100
CN1CCN(c2ccc(-c3cnc4c(-c5csc6ccccc56)cnn4c3)cc2)CC1 | 4.2 | > 15 | 4.59 | > 15 | 11.7 | > 15 | 6.2 | > 15 | 6.59 | 5.59 | > 15 | 3.03 | > 15 | 3.73 | 10.1 | 4.38 | > 15 µM | > 15 | > 15 µM | 3.02
COC(=O)[C@]12CC[C@@H](C)[C@H](C)[C@@H]1C1=CC[C@@H]3[C@@]4(C)C(C=O)=C[C@@](C)(COC(C)=O)[C@@H]4[C@H](O)C[C@@]3(C)[C@]1(C)CC2 | 2.6 | 10.2 | 2.35 | 6.93 | 2.09 | 5.04 | 2.79 | 9.73 | 3.34 | 1.73 | 5.74 | 1.84 | 5.4 | 2.66 | 8.21 | 1.92 | 4.36 µM | 1.76 | 4.1 µM | 1.82
CO[C@H]1[C@H](O)[C@H](O[C@H]2CC[C@@]3(C)[C@H](CC[C@@H]4[C@@H]3CC[C@]3(C)[C@@H](C5=CC(=O)OC5)CC[C@]43O)C2)O[C@@H](C)[C@@H]1O | – | 0.0252 | – | 0.0125 | – | < 0.0001 | – | 0.00115 | 0.00116 | 0.00525 | 0.524 | < 0.0001 | 0.0273 | – | 0.00341 | – | 0.00385 µM and 0.0152 µM | – | 0.00312 µM and < 0.0104 µM | –
C(CCc1nnc2c(n1)CCCC2)Cc1nnc2c(n1)CCCC2 | – | > 100 | – | > 100 | – | > 100 | – | > 100 | > 100 | – | > 100 | – | > 100 | – | > 100 | – | > 100 µM | – | > 100 µM | –
Nc1ccn([C@H]2C[C@@H](O)[C@@H](CO)S2)c(=O)n1 | > 100 | > 100 | > 100 | > 100 | 16.9 | > 100 | 19.6 | > 100 | > 100 | > 100 | > 100 | > 100 | > 100 | > 70.1 | > 100 | > 100 | > 100 µM | > 100 | > 100 µM | > 100
NCCNCC(O)CO (centres undefined) | – | > 100 | – | > 100 | – | > 100 | – | > 100 | > 100 | – | > 100 | – | > 100 | – | > 100 | – | > 100 µM | – | > 100 µM | –
CCCCn1c2c(c3ccccc3c1=O)C(=O)c1ccccc1-2 | – | > 100 | – | > 100 | – | > 100 | – | > 100 | > 100 | – | > 100 | – | > 100 | – | > 100 | – | > 100 µM | – | > 100 µM | –
Nc1c(C(=O)c2cccc(OCCN3CCOCC3)c2)cnn1-c1ccc(F)cc1 | > 25 | > 25 | > 25 | > 25 | > 25 | > 25 | > 25 | > 25 | > 25 | > 25 | > 25 | > 25 | > 25 | > 25 | > 25 | > 25 | > 25 µM | > 25 | > 25 µM | > 25
COc1cc2c3c(n(CCCN)c(=O)c2cc1OC)-c1ccc(F)cc1C3=O | 14.2 | 28.5 | 5.95 | 20.3 | 8.16 | 25.5 | 10.6 | 25.2 | 17.4 | 1.41 | 6.64 | 0.118 | 1.14 | 1.17 | 15.5 | 0.746 | 6.45 µM | 0.925 | 5.76 µM | 4.46
COc1ncc(-c2nc3c(n2C(C)C)[C@H](c2ccc(Cl)cc2)N(c2cc(Cl)cn(C)c2=O)C3=O)c(OC)n1 | 19.2 | 84.6 | 41.2 | > 100 | 35.3 | > 100 | 44 | > 100 | > 100 | 20.2 | > 100 | 6.14 | 77.1 | 63.7 | > 100 | 40.5 | > 100 µM | 5.95 | 28.4 µM | 46
COc1cc(/C=C/C(=O)c2cc(F)c(Cl)cc2Cl)cc(OC)c1OC | > 100 | > 100 | 10.5 | 26.4 | 28.1 | > 100 | 23.9 | 83.8 | 40 | 12.5 | 85.8 | 5.23 | 39.1 | 31.9 | > 100 | 29.3 | > 100 µM | 24.8 | > 100 µM | 14.5

Reference: PubChem BioAssay (NCI)
